According to ChEMBL document CHEMBL1144706, “Antineoplastic agents. 558. Ampelocissus sp. cancer cell growth inhibitory constituents” (2008):
Values after ≈ are worked out from the molar mass of the structure shown.

How the values were obtained:
Type in all cases: functional
P388 = assay: Growth inhibition of mouse P388 cells
NCI-H460 = assay: Growth inhibition of human NCI-H460 cells
DU-145 = assay: Growth inhibition of human DU145 cells
SF-268 = assay: Growth inhibition of human SF268 cells
MCF7 = assay: Growth inhibition of human MCF7 cells
BXPC-3 = assay: Growth inhibition of human BXPC3 cells
KM-20L2 = assay: Growth inhibition of human KM20L2 cells

Question: What does the source list for `CCCCCCCCCCCC[C@@H](O)[C@H]1CC[C@H]([C@@H](C[C@H](O)CCCCCCCCCCCCC2=CC(C)OC2=O)OC(C)=O)O1` (some centres undefined)?
Answer: GI50 (P388): 0.014 µg/mL (≈ 0.0215 µM); GI50 (NCI-H460): 0.2 µg/mL (≈ 0.307 µM); GI50 (DU-145): 0.0065 µg/mL (≈ 0.00998 µM); GI50 (SF-268): 11.9 µg/mL (≈ 18.3 µM); GI50 (MCF7): 0.12 µg/mL (≈ 0.184 µM); GI50 (BXPC-3): 7.3 µg/mL (≈ 11.2 µM); GI50 (KM-20L2): 0.034 µg/mL (≈ 0.0522 µM)

Question: What does the source list for `Cc1c(O)c(C=O)c(O)c(C(=O)CCc2ccccc2)c1O`?
Answer: GI50 (NCI-H460): 0.52 µg/mL (≈ 1.73 µM); GI50 (DU-145): 0.33 µg/mL (≈ 1.1 µM); GI50 (SF-268): 0.55 µg/mL (≈ 1.83 µM); GI50 (MCF7): 0.3 µg/mL (≈ 0.999 µM); GI50 (BXPC-3): 0.3 µg/mL (≈ 0.999 µM); GI50 (KM-20L2): 0.36 µg/mL (≈ 1.2 µM)

Question: Which GI50 (NCI-H460) does the source give for `CCCCCCCCCCCC[C@@H](O)[C@H]1CC[C@H]([C@@H](C[C@H](O)CCCCCCCCCC(O)CCC2=CC(C)OC2=O)OC(C)=O)O1` (some centres undefined) [UVARIBONIN] here?
Answer: 1 µg/mL (≈ 1.5 µM)

Question: What about the GI50 (DU-145) of the same compound?
Answer: 0.0093 µg/mL (≈ 0.0139 µM)

Question: And the GI50 (SF-268)?
Answer: 1.4 µg/mL (≈ 2.1 µM)

Question: And the GI50 (MCF7)?
Answer: 0.0022 µg/mL (≈ 0.0033 µM)

Question: What about the GI50 (BXPC-3) of the same compound?
Answer: 1.3 µg/mL (≈ 1.95 µM)

Question: What about the GI50 (KM-20L2) of the same compound?
Answer: 0.0013 µg/mL (≈ 0.00195 µM)
